The results in this text go back to patent US20230226084A1, “NON-INVASIVE METHOD OF TREATING COVID-19 INFECTION” (priority 2022, published 2023).

The subject of the assay is COVID-19 infection. Format: in vivo. The note with it: one subject.
[1] abbreviates: confirmed COVID-19, furosemide orally twice daily, 40 mg mornings and 20 mg at 6 hours interval, for 3 days.

As to `NS(=O)(=O)c1cc(C(=O)O)c(NCc2ccco2)cc1Cl` [furosemide], under setting [1], the “Subsidence of symptoms (cough, headache, body ache, fever, breathing difficulties)” value was “subsided on the second day” and the “Total recovery of the subject” value is on record as “totally recovered by night on the third day”. Besides, where the note is “after furosemide orally for 3 days”, the “Infection status per Government hospital certificate, a while after treatment” value is “negative status for the infection”.
